From publication PMC9133015 (Nature Communications, 2022)
Where “and” joins values, the source holds several entries; their conditions need not be identical. Equal values may be shown once. Read-outs that look alike come from different tables or passages of the source.

Tests used:
[1] = molecular target: T1, DYRK2 (Homo sapiens, UniProt Q92630); test: DYRKs kinase activity assay (33P-ATP, DYRKtide substrate): DYRK2; assay type: biochemical
T1 construct: purchased Reaction Biology Corporation (assay service)
T1 sequence (Q92630 1-601): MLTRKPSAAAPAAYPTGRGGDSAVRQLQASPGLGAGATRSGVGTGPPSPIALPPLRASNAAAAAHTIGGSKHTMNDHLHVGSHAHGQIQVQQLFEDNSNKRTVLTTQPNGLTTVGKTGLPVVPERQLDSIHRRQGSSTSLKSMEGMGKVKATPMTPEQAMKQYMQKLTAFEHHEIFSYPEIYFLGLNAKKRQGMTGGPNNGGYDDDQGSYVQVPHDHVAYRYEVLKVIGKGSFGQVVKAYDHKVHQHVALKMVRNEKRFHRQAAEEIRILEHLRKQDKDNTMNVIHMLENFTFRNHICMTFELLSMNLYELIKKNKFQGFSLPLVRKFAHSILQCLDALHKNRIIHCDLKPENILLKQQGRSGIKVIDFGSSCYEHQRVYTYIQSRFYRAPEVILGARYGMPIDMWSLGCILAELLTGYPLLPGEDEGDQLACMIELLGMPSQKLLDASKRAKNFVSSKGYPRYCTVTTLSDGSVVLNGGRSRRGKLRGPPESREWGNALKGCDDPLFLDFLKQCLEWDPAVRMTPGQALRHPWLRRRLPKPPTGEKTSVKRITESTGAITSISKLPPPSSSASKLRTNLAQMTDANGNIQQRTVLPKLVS

[2] = molecular target: T2, DYRK2 protein (Homo sapiens, UniProt Q92630); test: Microscale thermophoresis binding assay; settings: for Fnorm: triplicates
T2 construct: 6xHis (N, cleaved yes); TEV protease cleavage site (N, cleaved yes); made in house; host or cells: E. coli BL21 (DE3)
T2 sequence (Q92630 72-479 isoform Q92630-2): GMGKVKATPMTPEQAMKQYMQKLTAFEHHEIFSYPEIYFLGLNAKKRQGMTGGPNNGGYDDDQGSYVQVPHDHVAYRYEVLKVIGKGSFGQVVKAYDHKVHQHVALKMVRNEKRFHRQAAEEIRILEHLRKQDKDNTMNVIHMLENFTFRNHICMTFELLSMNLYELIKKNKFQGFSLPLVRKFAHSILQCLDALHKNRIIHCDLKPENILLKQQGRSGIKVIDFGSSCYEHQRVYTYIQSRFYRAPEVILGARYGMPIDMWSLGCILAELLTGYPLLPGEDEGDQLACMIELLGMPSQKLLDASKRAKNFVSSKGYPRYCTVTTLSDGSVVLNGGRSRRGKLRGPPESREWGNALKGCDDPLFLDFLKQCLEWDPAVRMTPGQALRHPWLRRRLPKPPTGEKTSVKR

- inhibition at 0.00152416 µM ([1]; 0.00152416 µM, duplicates, read-out: % Inhibition DYRK2): 3.73%
- inhibition at 0.0137174 µM ([1]; 0.0137174 µM, duplicates, read-out: % Inhibition DYRK2): 8.64%
- inhibition at 0.0411523 µM ([1]; 0.0411523 µM, duplicates, read-out: % Inhibition DYRK2): 21.1%
- inhibition at 0.123457 µM ([1]; 0.123457 µM, duplicates, read-out: % Inhibition DYRK2): 34.4%
- inhibition at 0.37037 µM ([1]; 0.37037 µM, duplicates, read-out: % Inhibition DYRK2): 57.9%
- inhibition at 1.11111 µM ([1]; 1.11111 µM, duplicates, read-out: % Inhibition DYRK2): 76.8%
- inhibition at 3.33333 µM ([1]; 3.33333 µM, duplicates, read-out: % Inhibition DYRK2): 87.6%
- inhibition at 10 µM ([1]; 10 µM, duplicates, read-out: % Inhibition DYRK2): 82.5%
- % Inhibition ([1]; DYRK2 kinase, Conc. 0.000508053 µM, duplicate values): 5.75% and 2.04%
- % Inhibition ([1]; DYRK2 kinase, Conc. 0.00152416 µM, duplicate values): 4.49%
- inhibition at 0.00152416 µM ([1]; DYRK2 kinase, Conc. 0.00152416 µM, duplicate values, read-out: % Inhibition): 3.73%
- % Inhibition ([1]; DYRK2 kinase, Conc. 0.00457247 µM, duplicate values): 3.40% and 7.56%
- % Inhibition ([1]; DYRK2 kinase, Conc. 0.0137174 µM, duplicate values): 7.85%
- inhibition at 0.0137174 µM ([1]; DYRK2 kinase, Conc. 0.0137174 µM, duplicate values, read-out: % Inhibition): 8.64%
- % Inhibition ([1]; DYRK2 kinase, Conc. 0.0411523 µM, duplicate values): 22.26%
- inhibition at 0.0411523 µM ([1]; DYRK2 kinase, Conc. 0.0411523 µM, duplicate values, read-out: % Inhibition): 21.1%
- % Inhibition ([1]; DYRK2 kinase, Conc. 0.123457 µM, duplicate values): 33.57%
- inhibition at 0.123457 µM ([1]; DYRK2 kinase, Conc. 0.123457 µM, duplicate values, read-out: % Inhibition): 34.4%
- % Inhibition ([1]; DYRK2 kinase, Conc. 0.37037 µM, duplicate values): 58.41%
- inhibition at 0.37037 µM ([1]; DYRK2 kinase, Conc. 0.37037 µM, duplicate values, read-out: % Inhibition): 57.9%
- % Inhibition ([1]; DYRK2 kinase, Conc. 1.11111 µM, duplicate values): 75.65%
- inhibition at 1.11111 µM ([1]; DYRK2 kinase, Conc. 1.11111 µM, duplicate values, read-out: % Inhibition): 76.8%
- % Inhibition ([1]; DYRK2 kinase, Conc. 3.33333 µM, duplicate values): 88.99%
- inhibition at 3.33333 µM ([1]; DYRK2 kinase, Conc. 3.33333 µM, duplicate values, read-out: % Inhibition): 87.6%
- % Inhibition ([1]; DYRK2 kinase, Conc. 10 µM, duplicate values): 86.13%
- inhibition at 10 µM ([1]; DYRK2 kinase, Conc. 10 µM, duplicate values, read-out: % Inhibition): 82.5%
- IC50 ([1]; Supplementary Table 1, read-out: IC50 (μM), DYRK2 kinase): 0.263 µM
- IC50 ([1]; read-out: DYRK2 IC50): 0.263 µM
- Kd [2]: 4210 nM
- Fnorm ([2]; Ligand Concentration 1.52588e-9 M): 954.38 ‰ and 953.199 ‰ and 953.894 ‰
- Fnorm ([2]; Ligand Concentration 3.05176e-9 M): 952.707 ‰ and 951.359 ‰ and 952.777 ‰
- Fnorm ([2]; Ligand Concentration 6.10352e-9 M): 952.691 ‰ and 953.017 ‰ and 952.481 ‰
- Fnorm ([2]; Ligand Concentration 1.2207e-8 M): 952.212 ‰ and 953.635 ‰ and 952.43 ‰
- Fnorm ([2]; Ligand Concentration 2.44141e-8 M): 953.58 ‰ and 951.571 ‰ and 954.168 ‰
- Fnorm ([2]; Ligand Concentration 4.88281e-8 M): 951.243 ‰ and 951.794 ‰ and 952.294 ‰
- Fnorm ([2]; Ligand Concentration 9.76563e-8 M): 951.852 ‰ and 953.231 ‰ and 951.931 ‰
- Fnorm ([2]; Ligand Concentration 1.95313e-7 M): 949.537 ‰ and 959.016 ‰ and 950.589 ‰
- Fnorm ([2]; Ligand Concentration 3.90625e-7 M): 952.367 ‰ and 950.104 ‰ and 950.78 ‰
- Fnorm ([2]; Ligand Concentration 7.8125e-7 M): 949.243 ‰ and 949.342 ‰ and 952.357 ‰
- Fnorm ([2]; Ligand Concentration 1.5625e-6 M): 951.973 ‰ and 948.051 ‰ and 949.742 ‰
- Fnorm ([2]; Ligand Concentration 3.125e-6 M): 946.14 ‰ and 947.629 ‰ and 949.334 ‰
- Fnorm ([2]; Ligand Concentration 6.25e-6 M): 948.962 ‰ and 949.021 ‰ and 944.76 ‰
- Fnorm ([2]; Ligand Concentration 1.25e-5 M): 945.246 ‰ and 944.859 ‰ and 943.424 ‰
- Fnorm ([2]; Ligand Concentration 2.5e-5 M): 944.179 ‰ and 942.478 ‰ and 945.127 ‰
- Fnorm ([2]; Ligand Concentration 5e-5 M): 942.507 ‰ and 940.515 ‰ and 942.733 ‰
SMILES: CC(C)N1CCN(Cc2ccc(Nc3ncc(F)c(-c4ccc5ncsc5c4)n3)nc2)CC1 [Compound 12]
